The values below come from patent US5277897A, “In vivo enhancement of cellular accumulation of lipophilic cationic organometallic compounds by reduction of intramembrane potential” (Brigham and Women's Hospital, priority 1992, dated 1994).

In data set [1] the test system is cultured chick heart cells. Nature of the data set: Effect of phloretin, alone or with TPB, on net uptake of Tc-MIBI in cultured chick heart cells (FIG. 7, 8). It counts as cell-based. On the procedure:
FIG. 7. Effect of phloretin on net accumulation of Tc-M1B1 in cultured heart cells. Preparations were incubated for the times indicated in Tc-MIBI loading buffer in the absence (.quadrature.) or presence of phloretin ( , 10^-7 M; , 10^-4 M). Each point represents the mean ±SEM of 3-4 determinations.
FIG. 8. Effect of phloretin and tetraphenylborate together on net uptake of Tc-MB1 in cultured chick heart cells. Preparations were incubated in MEBSS containing Tc-MIBI for 30 minutes in the absence (control) or presence of tetraphenylborate and phloretin each alone or in combination as indicated on the abscissa. Each group of four conditions (two groups in A and one group in B) represent separate cultures. Error bars indicate ±SEM for three or more determinations.
(§1) Monolayers of spontaneously contractile chick ventricular myocardial cells were obtained from disaggregated 10-day old chick embryo hearts by a slight modification of previously published methods (Horres, C. R., et al., In Pinson, A. (ed.), The Heart Cell in Culture, Boca Raton, CRC Press, pp. 77-108 (1987)). […] Cells were centrifuged at 400 g for 10 minutes, resuspended and combined in culture medium, counted with a hemocytometer and diluted to yield a suspension of 5×10^5 cells/ml. […]
Radioactive uptake methods have been described in detail (Piwnica-Worms, D., et al, Circ. (in press). Briefly, coverslips with confluent cells were removed from culture media and pre-equilibrated for 40-60 seconds in MEBSS buffer. Uptake and retention experiments were initiated by immersion of coverslips in 60 mm glass Pyrex dishes containing loading solution consisting of buffer with 0.1-0.6 nM [^99m Tc-MIBI] (0.01-0.4 Ci/nmole; 25-100 uCi/ml). Preparations were removed at various times and rinsed three times in 25 ml volumes of ice-cold (2° C.) isotope-free buffer for 8 seconds each to clear extracellular spaces. […] Results were therefore expressed as fmol cellular Tc-MIBI/mg protein per nM extracellular Tc-MIBI concentration. […]

In data set [2] the test system is cultured chick heart cells. Nature of the data set: Effect of MSA on Tc-MIBI net accumulation (FIG. 3). It counts as cell-based. Particulars: MSA 5.4 mM. The method, then:
FIG. 3. Effect of MSA on Tc-MIBI net accumulation. Preparations were incubated for the times indicated in Tc-MIBI loading buffer containing 5.4 mM KCl (.quadrature., .smallcircle.) or 5.4 mM K-MSA ( , ·; prepared by equimolar substitution of K-MSA KCl) in the absence (.quadrature., ) or presence (.smallcircle., ·) of TPB (10^-5 M). Each point represents the mean ±SEM of 3 determinations.
Control buffer was a modified Earle's balanced salt solution (MEBSS) with the following composition (mN) Na^30, 145; K^+, 5.4; Ca^2, 1.2; Mg^2+, 0.8; Cl, 152; H2 PO4, 0.8; SO4^2-, 0.8; dextrose, 5.6; HEPES, 4.0; and bovine calf serum, 1% (v/v); […]; 37° C. K-methanesulfonate was made by titration of methanesulfonic acid with KOH (Piwnica-Worms, D., et al., J. Gen. Physiol. 81:731-748 (1983)) and replaced […] in some solutions by equimolar substitution where indicated. Natetraphenylborate, CCCP, bumetanide and valinomycin were dissolved into DMSO prior to addition to buffer. DMSO alone has no significant affect on contractile activity, action potential configuration (Lieberman, M., et al., Dev. Biol. 31:380-403 (1973)) or Tc-MIBI uptake kinetics (Piwnica-Worms, D., et al., Circ. (in press)).
as §1
Radioactive uptake methods have been described in detail (Piwnica-Worms, D., et al, Circ. (in press). Briefly, coverslips with confluent cells were removed from culture media and pre-equilibrated for 40-60 seconds in MEBSS buffer. Uptake and retention experiments were initiated by immersion of coverslips in 60 mm glass Pyrex dishes containing loading solution consisting of buffer with 0.1-0.6 nM [^99m Tc-MIBI] (0.01-0.4 Ci/nmole; 25-100 uCi/ml). Preparations were removed at various times and rinsed three times in 25 ml volumes of ice-cold (2° C.) isotope-free buffer for 8 seconds each to clear extracellular spaces. Preparations and aliquots of the loading buffer and stock solutions were counted in a well-type sodium iodide gamma counter after which cell protein on each coverslip was extracted in 1% sodium dodecylsulfate with 10 mM sodium borate and assayed by the method of Lowry (Lowry, O. H., et al., J. Biol. Chem. 193:265-275 (1951)). […]

The test system of data set [3] is cultured chick myocardial cells. Particulars: cited from earlier work.
Data set [4] relates to cells and mitochondria. Conditions: cited from earlier work.
Data set [5] relates to cultured chick heart cells. Nature of the data set: Effect of valinomycin on tetraphenylborate enhancement of Tc-MIBI accumulation in high Ko buffer (Table 1). It counts as cell-based. Conditions: valinomycin 1 ug/ml; high K buffer. The method, then:
(§2) Monolayers of spontaneously contractile chick ventricular myocardial cells were obtained from disaggregated 10-day old chick embryo hearts by a slight modification of previously published methods (Horres, C. R., et al., In Pinson, A. (ed.), The Heart Cell in Culture, Boca Raton, CRC Press, pp. 77-108 (1987)). Hearts were trimmed of connective tissue and atria, finely minced and serially exposed to 0.024% (w/v) trypsin in Ca^2+ - and Mg^2+ - free Earle's salt solution for 7 minutes at 37° C. Gentle trituration and agitation on an orbital shaker bath aided disaggregation. Cells released from the first exposure were discarded and cells aspirated from the next four exposures were then added to an equal volume of trypsin deactivating solution consisting of ice-cold culture medium. Cells were centrifuged at 400 g for 10 minutes, resuspended and combined in culture medium, counted with a hemocytometer and diluted to yield a suspension of 5×10^5 cells/ml. 12 ml of suspension were incubated in 100 mm plastic culture dishes containing 7 coverslips (25 mm diameter) placed on the bottom of each dish to serve as substrate for cell growth. Cells were maintained in a humidified atmosphere of 5% CO2 /95% air for 3-4 days yielding a confluent layer of spontaneously contractile myocytes on each coverslip.
(§3) Radioactive uptake methods have been described in detail (Piwnica-Worms, D., et al, Circ. (in press). Briefly, coverslips with confluent cells were removed from culture media and pre-equilibrated for 40-60 seconds in MEBSS buffer. Uptake and retention experiments were initiated by immersion of coverslips in 60 mm glass Pyrex dishes containing loading solution consisting of buffer with 0.1-0.6 nM [^99m Tc-MIBI] (0.01-0.4 Ci/nmole; 25-100 uCi/ml). Preparations were removed at various times and rinsed three times in 25 ml volumes of ice-cold (2° C.) isotope-free buffer for 8 seconds each to clear extracellular spaces. Preparations and aliquots of the loading buffer and stock solutions were counted in a well-type sodium iodide gamma counter after which cell protein on each coverslip was extracted in 1% sodium dodecylsulfate with 10 mM sodium borate and assayed by the method of Lowry (Lowry, O. H., et al., J. Biol. Chem. 193:265-275 (1951)). Tc-MIBI binding to glass coverslips without cells was used as an estimate of non-specific adhesion to the substrate ([…] obtained with cellular preparations); this value was subtracted from total uptake determinations to derive the cell-associated counts. Use of generator equilibrium equations (Lamson, M. L., et al., i J. Nucl. Med. 16:639-641 (1975)) allowed calculation of absolute moles of Tc-MIBI in solutions and preparations. Results were therefore expressed as fmol cellular Tc-MIBI/mg protein per nM extracellular Tc-MIBI concentration. Division of this value by the cell water space (6.9 ul/mg protein; Chiu, M. L., et al., J. Nucl. Med. (31:1646-1653(1990)) yields a nominal intracellular/extracellular Tc-MIBI accumulation ratio neglecting subcellular compartmentation of the agent.
To further explore the influence of TPB on any potential-independent accumulation of Tc-MIBI in myocytes, preparations were exposed to 130 mM K° 20 mM Clo buffer (Table 1). […] Equilibration of intracellular and extracellular spaces occurred in the presence of high K buffer plus valinomycin under all conditions (in/out ration ~1; P=NS) indicating the lack of any significant potential-independent membrane binding of Tc-MIBI.
Preparations were incubated in high Ko low Clo loading buffer +/- valinomycin (1 ug/ml) for 20 minutes in the presence of TPB (10^-5 M) or for 40 minutes in its absence to determine peak accumulation of Tc-MIBI under each condition. Values are the mean ±SEM. Tc-MIBI in/out ratios were obtained by dividing net uptake values by the cell water space of […] (Chiu, M. L., et al., J. Nucl. 31:1646-1653 (1990)). +p<0.01; * p<0.001 compared to net uptake in 130 mM Ko buffer.

For data set [6], the system named is cultured chick heart cells. Nature of the data set: Influence of TPB and CCCP on (membrane potential-independent) accumulation of Tc-MIBI (FIG. 4). Particulars: CCCP 5 uM; presence and absence of TPB; P<0.001. It counts as cell-based. On the procedure: FIG. 4. […] Preparations were incubated for the times indicated in 5.4 mM Ko control loading buffer containing tracer Tc-MIBI and TPB together (Δ) or in loading buffer containing Tc-MIBI alone (.quadrature.). For the latter incubation, TPB was added to the loading buffer at the arrow and cell content of Tc-MIBI subsequently determined (o). Under each condition, CCCP was added to the loading buffers as indicated by the arrows and cell content of Tc-MIBI determined ( , , ·). Each point is the mean ±SEM of 3 determinations.
as §2
as §3, with “Division of this value by the cell water space (6.9 ul/mg protein; Chiu, M. L., et al., J. Nucl. Med. (31:1646-1653(1990)) yields a nominal intracellular/extracellular Tc-MIBI accumulation ratio neglecting subcellular compartmentation of the agent.” left out

Consider `O=C(CCc1ccc(O)cc1)c1c(O)cc(O)cc1O` [phloretin, 3-(4-hydroxyphenyl)-1-(2,4,6-trihydroxyphenyl)-1-propanone], for which, in data set [1] (Gallus gallus, 0.5 h, phloretin 10^-4 M, 30 minute uptake (FIG. 8), approximately, read-out: net retention of Tc-MIBI above control levels), the fold induction at 100 µM is 2.5 to 3.5. In addition, in data set [1] (phloretin 10^-4 M and 10^-5 M with 10^-5 M TPB, 30 minutes), the “additive enhancement by tetraphenylborate and phloretin” value was “no evidence of additive enhancement by tetraphenylborate and phloretin”. Further, in data set [1] (phloretin 10^-4 M, within 30 minutes (FIG. 7)), the “net uptake of Tc-MIBI enhanced above control” value was “five-fold”.
With `CS(=O)(=O)O` [MSA, methanesulfonate, reference compound], the “uptake kinetics or equilibrium content of Tc-MIBI” value in data set [2] is “did not significantly alter uptake kinetics or equilibrium content of Tc-MIBI”. For the same compound, the “TPB-induced enhancement of Tc-MIBI accumulation” value in data set [2] (TPB 10^-5 M) is on record as “did not interfere with the TPB-induced enhancement of Tc-MIBI accumulation”.
Turning to `CC[C@H]1/C=C/C=C/C[C@@H](C)[C@H](O)[C@@](C)(O)C(=O)[C@@H](C)[C@H](O)[C@@H](C)C(=O)[C@@H](C)[C@H](O)[C@@H](C)/C=C/C(=O)O[C@@H]2[C@H](C)[C@H](CC1)O[C@]1(CC[C@H](C)[C@H](C[C@@H](C)O)O1)[C@H]2C` [oligomycin], in data set [3] (oligomycin, mitochondrial hyperpolarization), the “Tc-MIBI uptake or retention” value was “increases Tc-MIBI uptake or retention”.
For `COC(=O)c1ccccc1-c1c2ccc(=N)cc-2oc2cc(N)ccc12` [rhodamine 123], in data set [4], the “toxicity to cells and mitochondria” value was “shown to be toxic to cells and mitochondria”. In data set [4] (typical loading activities), the “toxic effects on mitochondrial function” value is on record as “toxic effects on mitochondrial function”.
`CC(C)[C@@H]1NC(=O)[C@H](C)OC(=O)[C@@H](C(C)C)NC(=O)[C@@H](C(C)C)OC(=O)[C@H](C(C)C)NC(=O)[C@H](C)OC(=O)[C@@H](C(C)C)NC(=O)[C@@H](C(C)C)OC(=O)[C@H](C(C)C)NC(=O)[C@H](C)OC(=O)[C@@H](C(C)C)NC(=O)[C@@H](C(C)C)OC1=O` [valinomycin, reference compound]: the “net accumulation of Tc-MIBI” value in data set [5] is on record as “eliminated net accumulation of Tc-MIBI”.
With `[N-]=[N+]=[N-]` [sodium azide], in data set [3] (sodium azide in combination with oligomycin), the “net uptake of Tc-MIBI” value was “virtually eliminates net uptake of the agent”.
As to `CO[C@@H]1C[C@@H](C[C@H]2CC[C@H](C)[C@H]([C@@H](C)C(=O)O)O2)O[C@]2(O[C@](C)([C@H]3CC[C@@](C)([C@@H]4O[C@@H]([C@H]5O[C@@](O)(CO)[C@H](C)C[C@@H]5C)C[C@@H]4C)O3)C[C@H]2C)[C@@H]1C` [nigericin], the “net cellular uptake of Tc-MIBI” value in data set [3] (nigericin, mitochondrial hyperpolarization) is “increases net cellular uptake of Tc-MIBI”.
As for `N#CC(C#N)=NNc1cccc(Cl)c1` [CCCP, carbonyl cyanide-m-chlorphenylhydrazone, reference compound], the “release of myocellular Tc-MIBI” value in data set [6] was “rapid and near complete release of myocellular Tc-MIBI”. Moreover, in data set [3] (CCCP, mitochondrial depolarization), the “unidirectional influx and net cellular accumulation of Tc-MIBI” value is “decreases the unidirectional influx and net cellular accumulation of TC-MIBI”.
